Test results as given in article PMC6332220, “Synthesis, Characterization and Biological Evaluation of Some Quinoxaline Derivatives: A Promising and Potent New Class of Antitumor and Antimicrobial Agents” (Molecules, 2015).
In brackets after ≈: the same amount, converted by molar mass.

What was measured:
Aspergillus flavus = assay: Disk diffusion, Aspergillus flavus; assay type: cell-based; conditions: Fungi, 8.0 mm disks, 10 μL
Method: (§1) The disk diffusion method was used for determination of the antimicrobial activity using ampicillin, gentamicin and amphotericin B as reference drugs. The results were recorded for each compounds as the average diameter as inhibition zones (IZ) of bacterial or fungal growth around the discs in mm as shown in Table 2.
(§2) Antimicrobial activities were carried out against highly pathogenic strains; three strains of Gram positive bacteria (Bacillus subtilis, Staphylococcus aureus and Streptococcus faecalis), four strains of Gram negative bacteria (Escherichia coli, Neisseria gonorrhoeae, Pseudomonas aeruginosa and Salmonella typhimurium) and three fungi strains (Aspergillus flavus, Aspergillus fumigatus and Candida albicans) isolated from primary agar plates. Antimicrobial activity of the tested samples was determined using a modified Kriby-Bauer disk diffusion method. Briefly, 100 µL of the test bacteria/fungi were grown in 10 mL of fresh media until they reached a count approximately 10^8 cells/mL for bacteria or 10^5 cells/mL for fungi. 100 µL of microbial suspension was spread onto agar plates corresponding to the broth in which they were maintained. The inoculated plates of bacterial strains were incubated at 35–37 °C for 24–48 h, while the inoculated plates of fungal strains such as A. flavus and A. fumigatus were incubated at 25 °C for 48 h and yeast as C. albicans was incubated at 30 °C for 24–48 h.
(§3) The agar disk diffusion (qualitative) method was used in this investigation for determination of the preliminary antibacterial and antifungal activities. The agar used was Mueller-Hinton agar plates that are rigorously tested for composition and pH. Further the depth of the agar in the plate is a factor to be considered in the disk diffusion method.
(§4) Reference drugs: ampicillin was used as a standard antibacterial drug for Gram positive bacteria, gentamicin as a standard antibacterial drug for Gram negative bacteria and amphotericin B as antifungal standard drug.
(§5) Bacterial and fungal strains were spread onto the surface of the agar plates using sterile cotton swabs. For evaluation of antibacterial activities, blank paper disks (Schleicher & Schuell, Alicante, Spain) with a diameter of 8.0 mm were saturated with 10 μL of tested concentration of the stock solutions. Disks were dried and then placed onto inoculated agar plates. The plates of bacterial strains were reincubated at 35–37 °C for 24–48 h, while the plates of fungal strains such as A. flavus and A. fumigatus were reincubated at 25 °C for 48 h and yeast as C. albicans was reincubated at 30 °C for 24–48 h as mentioned above. […] For an accurate analysis, tests were run in triplicate for each strain to avoid any error as described in Table 2.
(§6) Disk diffusion method for filamentous fungi testing by using approved standard method (M02-A11) developed by the CLSI for evaluating the susceptibilities of filamentous fungi to antifungal agents. Disk diffusion method for yeasts developed by using approved standard method (M44-A2) by the CLSI [44]. Agar-based methods such as disk diffusion can be good alternatives because they are simpler and faster than broth-based methods.

Salmonella typhimurium [1] = assay: Disk diffusion, Salmonella typhimurium; assay type: cell-based; conditions: Gram negative, 8.0 mm disks, 10 μL
Method: as §1, §2, §3, §4, §5

[2] = test system: WI 38 (normal fibroblast cells); assay: In vitro cytotoxicity, SRB cell growth assay, normal cells WI 38; assay type: cell-based, human; conditions: 48 h exposure, non-cytotoxic = IC50 >100 μg/mL
Method: (§7) The in vitro cytotoxic activity of the newly synthesized compounds against human breast cell line (MCF7), non-small cell lung cancer NCIH460, CNS cancer SF-268 and WI 38 (normal fibroblast cells) were evaluated using doxorubicin as the reference drug according to the method reported by Skehan et al..
(§8) The newly synthesized compounds were evaluated in vitro against three human cancer cell lines; which are MCF-7 (breast adenocarcinoma), NCI-H460 (non-small cell lung cancer) and SF-268 (CNS cancer), and WI 38 (normal fibroblast cells) were used in this study. MCF-7 was obtained from the European Collection of Cell Cultures (ECACC, Salisbury, UK) but NCI-H460, SF-268 and WI 38 were kindly provided by the National Cancer Institute (NCI, Cairo, Egypt). They grow as monolayer and routinely maintained RPMI-1640 medium supplemented with 5% heat inactivated fetal bovine serum (FBS), 2 mM glutamine and antibiotics (penicillin 100 U/mL, streptomycin 100 µg/mL), at 37 °C in a humidified atmosphere containing 5% CO2. Exponentially growing cells were obtained by plating 1.5 × 10^5 cells/mL for MCF-7 and SF-268, and 0.75 × 10^4 cells/mL for NCI-H460 followed by 24 h of incubation. The effect of the vehicle solvent (DMSO) on the growth of these cell lines was evaluated in all experiments by exposing untreated control cells to the maximum concentration (0.5%) of DMSO used in each assay.
(§9) The effect of compounds on the in vitro growth of human tumor cell lines were evaluated according to the procedure adopted by the National Cancer Institute ([…]) in the “In vitro Anticancer Drug Discovery Screen” that uses the protein-binding dye sulforhodamine B (SRB) to assess cell growth. In the assay protocol, all cells were incubated at 37 °C under humidified atmosphere containing 5% CO2. Briefly, exponentially cells growing in 96-well plates were then exposed for 48 h to five serial concentrations of each compound, starting from a maximum concentration of 150 μg/mL. Following this exposure period adherent cells were fixed, washed and stained. The bound stain was solubilized and the absorbance was measured at 492 nm in a plate reader (Bio-Tek Instruments Inc., Power wave XS, Winston, NC, USA). For each test compound and cell line, a dose response curve was obtained and the inhibitory concentration of 50% (IC50), corresponding to the concentration of the compounds that inhibited 50% of the net cell growth was calculated as described elsewhere. Doxorubicin was used as a positive control and tested in the same manner.

Streptococcus faecalis [3] = assay: Disk diffusion, Streptococcus faecalis; assay type: cell-based; conditions: Gram positive, 8.0 mm disks, 10 μL
Method: as §1, §2, §3, §4, §5

Bacillus subtilis [4] = assay: MIC by broth dilution, Bacillus subtilis; assay type: cell-based; conditions: Gram positive, 0.98-125 µg/mL
Method: (§10) In this study, MIC (quantitative method) was used for evaluation of the antimicrobial activity of tested compounds. Screening was evaluated in vitro using the Broth dilution method according to CLSI [45]. All the bacteria were incubated and activated at 30 °C for 24 h inoculation into nutrient broth and the fungi were incubated in malt extract broth for 48 h. The compounds were dissolved in DMSO and then diluted using […] Mueller-Hinton broth. […] In each case triplicate tests were performed and the average was taken as the final reading. The tubes were then inoculated with the test organisms, grown in their suitable broth at 37 °C for 24 h for tested microorganisms (1 × 10^8 CFU/mL for bacteria and 1 × 10^6 CFU/mL of fungi), each 5 mL received 0.1 mL of the above inoculum and incubated at 37 °C for 24 h.

Neisseria gonorrhoeae = assay: Disk diffusion, Neisseria gonorrhoeae; assay type: cell-based; conditions: Gram negative, 8.0 mm disks, 10 μL
Method: as §1, §2, §3, §4, §5

Staphylococcus aureus [5] = assay: Disk diffusion, Staphylococcus aureus; assay type: cell-based; conditions: Gram positive, 8.0 mm disks, 10 μL
Method: as §1, §2, §3, §4, §5

SF-268 (CNS cancer) = assay: In vitro cytotoxicity, SRB cell growth assay, SF-268; conditions: SF-268, SRB, 48 h exposure
Method: as §7, §8, §9

[6] = test system: NCI-H460 (non-small cell lung cancer); assay: In vitro cytotoxicity, SRB cell growth assay, NCI-H460; conditions: NCI-H460, SRB, 48 h exposure
Method: as §7, §8, §9

Streptococcus faecalis [7] = assay: MIC by broth dilution, Streptococcus faecalis; assay type: cell-based; conditions: Gram positive, 0.98-125 µg/mL
Method: as §10

Pseudomonas aeruginosa [8] = assay: MIC by broth dilution, Pseudomonas aeruginosa; assay type: cell-based; conditions: Gram negative, 0.98-125 µg/mL
Method: as §10

[9] = test system: MCF-7 (breast adenocarcinoma); assay: In vitro cytotoxicity, SRB cell growth assay, MCF-7; conditions: MCF-7, SRB, 48 h exposure
Method: as §7, §8, §9

Escherichia coli [10] = assay: MIC by broth dilution, Escherichia coli; assay type: cell-based; conditions: Gram negative, 0.98-125 µg/mL
Method: as §10

Candida albicans = assay: Disk diffusion, Candida albicans; assay type: cell-based; conditions: Fungi, 8.0 mm disks, 10 μL
Method: as §1, §2, §3, §4, §5, §6

Salmonella typhimurium [11] = assay: MIC by broth dilution, Salmonella typhimurium; assay type: cell-based; conditions: Gram negative, 0.98-125 µg/mL
Method: as §10

Escherichia coli [12] = assay: Disk diffusion, Escherichia coli; assay type: cell-based; conditions: Gram negative, 8.0 mm disks, 10 μL
Method: as §1, §2, §3, §4, §5

Pseudomonas aeruginosa [13] = assay: Disk diffusion, Pseudomonas aeruginosa; assay type: cell-based; conditions: Gram negative, 8.0 mm disks, 10 μL
Method: as §1, §2, §3, §4, §5

Staphylococcus aureus [14] = assay: MIC by broth dilution, Staphylococcus aureus; assay type: cell-based; conditions: Gram positive, 0.98-125 µg/mL
Method: as §10

Bacillus subtilis [15] = assay: Disk diffusion, Bacillus subtilis; assay type: cell-based; conditions: Gram positive, 8.0 mm disks, 10 μL
Method: as §1, §2, §3, §4, §5

Aspergillus fumigatus = assay: Disk diffusion, Aspergillus fumigatus; assay type: cell-based; conditions: Fungi, 8.0 mm disks, 10 μL
Method: as §1, §2, §3, §4, §5, §6

With “9-Bromo-di-1,2,4-triazolo[1,5-a:5′,1′-c]quinoxaline [Compound 13]” the “Inhibition Zone Diameter (IZ) (mm) Aspergillus flavus” value (Aspergillus flavus) was “R (R (IZ = 0 mm))”, the “Inhibition Zone Diameter (IZ) (mm) Salmonella typhimurium” value (Salmonella typhimurium [1]) was 17 mm and the “IC50 (μg/mL) WI 38” value [2] was 18.62 ± 1.21 µg/mL. The “Inhibition Zone Diameter (IZ) (mm) Streptococcus faecalis” value (Streptococcus faecalis [3]) was 20 mm, the “Minimum Inhibitory Concentration (MIC) (µg/mL) Bacillus subtilis” value (Bacillus subtilis [4]) was 1.95 µg/mL and the “Inhibition Zone Diameter (IZ) (mm) Neisseria gonorrhoeae” value (Neisseria gonorrhoeae) was “R (R (IZ = 0 mm))”. For the same molecule, the “Inhibition Zone Diameter (IZ) (mm) Staphylococcus aureus” value (Staphylococcus aureus [5]) was 16 mm, the “IC50 (μg/mL) SF-268” value (SF-268 (CNS cancer)) was 29.35 ± 7.01 µg/mL and the “IC50 (μg/mL) NCI-H460” value [6] was 36.05 ± 5.23 µg/mL. The “Minimum Inhibitory Concentration (MIC) (µg/mL) Streptococcus faecalis” value (Streptococcus faecalis [7]) was 62.5 µg/mL, the “Minimum Inhibitory Concentration (MIC) (µg/mL) Pseudomonas aeruginosa” value (Pseudomonas aeruginosa [8]) was 125 µg/mL and the “IC50 (μg/mL) MCF-7” value [9] was 37.64 ± 6.72 µg/mL. For the same molecule, the “Minimum Inhibitory Concentration (MIC) (µg/mL) Escherichia coli” value (Escherichia coli [10]) was 7.81 µg/mL, the “Inhibition Zone Diameter (IZ) (mm) Candida albicans” value (Candida albicans) was “R (R (IZ = 0 mm))” and the “Minimum Inhibitory Concentration (MIC) (µg/mL) Salmonella typhimurium” value (Salmonella typhimurium [11]) was 3.9 µg/mL. For the same molecule, the “Inhibition Zone Diameter (IZ) (mm) Escherichia coli” value (Escherichia coli [12]) was 17 mm, the “Inhibition Zone Diameter (IZ) (mm) Pseudomonas aeruginosa” value (Pseudomonas aeruginosa [13]) was 19 mm and the “Minimum Inhibitory Concentration (MIC) (µg/mL) Staphylococcus aureus” value (Staphylococcus aureus [14]) was 7.81 µg/mL. The “Inhibition Zone Diameter (IZ) (mm) Bacillus subtilis” value (Bacillus subtilis [15]) was 17 mm and the “Inhibition Zone Diameter (IZ) (mm) Aspergillus fumigatus” value (Aspergillus fumigatus) was “R (R (IZ = 0 mm))”.
`NNc1nc2ccc(Br)cc2n2nnnc12` [Compound 10] gave an MIC (Bacillus subtilis [4]; Bacillus subtilis, 24 h, read-out: Minimum Inhibitory Concentration (MIC) (µg/mL) Bacillus subtilis) of 0.98 µg/mL (≈ 3.5 µM), an MIC (Streptococcus faecalis [7]; Enterococcus faecalis, 24 h, read-out: Minimum Inhibitory Concentration (MIC) (µg/mL) Streptococcus faecalis) of 0.98 µg/mL (≈ 3.5 µM) and an MIC (Pseudomonas aeruginosa [8]; Pseudomonas aeruginosa, 24 h, read-out: Minimum Inhibitory Concentration (MIC) (µg/mL) Pseudomonas aeruginosa) of 125 µg/mL (≈ 446 µM). For the same molecule, the MIC (Escherichia coli [10]; Escherichia coli, 24 h, read-out: Minimum Inhibitory Concentration (MIC) (µg/mL) Escherichia coli) was 3.9 µg/mL (≈ 13.9 µM), the MIC (Salmonella typhimurium [11]; Salmonella enterica, TYPHIMURIUM, 24 h, read-out: Minimum Inhibitory Concentration (MIC) (µg/mL) Salmonella typhimurium) was 1.95 µg/mL (≈ 6.96 µM) and the MIC (Staphylococcus aureus [14]; Staphylococcus aureus, 24 h, read-out: Minimum Inhibitory Concentration (MIC) (µg/mL) Staphylococcus aureus) was 0.98 µg/mL (≈ 3.5 µM).
